One assay concerns red rice. Particulars: fields of transgenic rice bearing the bar gene (Oard et al. 2000); cited from earlier work.
Assay [1] has as its system non-transformed tobacco plants. The assay can be described thus: Seed germination in the presence of kanamycin or imazapyr (tobacco). Format: in vivo, Nicotiana tabacum. Conditions: tobacco seeds on Nitsch agar medium; sensitive seedlings stop growing within 10 days. How it is done: Surface sterilized seeds of wild type, the backcross of primary transformants with wild type T0 (=BC), T1, T2, and T3 tobacco plants were planted on either medium. Sensitive seedlings were identified as those that stopped growing within 10 days, forming only short roots and cotyledons, while resistant seedlings grew well, forming long roots and true leaves, continuing their growth past 10 days. The segregation ratio of wild type to TM of each line was calculated. Resistant/dwarfed seedlings were grown to maturity in soil and the plants were analyzed for AHAS resistance (phenotype) and for ahas^R and Δgai insert by PCR (genotype), as described herein above.
Competition of TM transgenics with the wild type, and self competition of each alone: The transgenic TM tobacco was used to simulate a TM introgressed hybrid or transgenic volunteer crop, and the wild type tobacco was used to simulate a non-transgenic crop, weed, or wild plant. The competitive interactions between the transgenic and wild type plants were assessed in two separate internally replicated greenhouse experiments. In both experiments, seeds obtained from the first backcross T1 (═BC1) of a representative TM line T1-7 (pollen recipient) and wild type (pollen donor) were used to grow mixed TM and wild type cultures. […]

The next assay has as its system non-transgenic B. napus. The assay is described as follows: Rooting of regenerated plantlets in the presence of kanamycin. Particulars: root formation of regenerated B. napus plantlets. In kind it is in vivo, Brassica napus. An excerpt:
Transformation of oilseed rape (B. napus cv. Westar): The Agrobacterium tumefaciens-mediated transformation protocol of Moloney, et al (Plant Cell Reports 1989; 8,238-242) using excised cotyledonary petioles of B. napus cv. Westar seedlings was followed with some modifications. Excised cotyledons of axenic B. napus cv. Westar seedlings were inoculated by dipping the cut end of a 2 mm petiole in a suspension of A. tumefaciens strain EHA105 or EHA 101 containing the same TM 1 construct described in detail in Example 1. Non-transformed cotyledons served as negative controls. After co-cultivation for 2.5 days, the cotyledons were regenerated on Murashige-Skoog (MS) medium containing 500 mg/L carbenicillin to kill A. tumefaciens and 20 mg/L kanamycin as the primary plant selectable marker. Some healthy calli developed on the cut petioles and regenerated into green shoots which were then sub-cultured onto shoot elongation medium containing 300 mg/L carbenicillin and either 20 mg/L kanamycin or 0.2 μM imazapyr herbicide as secondary selectable marker of the putative transformants. The shoots were then rooted, potted, and transferred to the greenhouse to grow flower and set seed. The putative transformants were tested by PCR (FIG. 5) and by AHAS enzymatic assay (as described in Example 1 herein above) (FIG. 6) to confirm TM transformation. […]

Assay [2] deals with non-transformed B. napus plants. The assay can be described thus: Seed germination in the presence of kanamycin or imazapyr (oilseed rape). Format: in vivo, Brassica napus. Particulars: B. napus seeds on Nitsch agar medium. How it is done:
Seed germination in the presence of kanamycin or imazapyr: A discriminatory dose level of Nitsch (Nitsch, Nicotiana. Phytomorphology 1969; 19, 389-404) agar medium containing 150 mg/L kanamycin or 0.3 μM imazapyr inhibiting the growth of non-transformed plants was determined. Surface sterilized seeds of non-transgenic, and TM B. napus plants were planted on either medium. Sensitive seedlings stopped growing within 10 days forming only short roots and cotyledons, while resistant seedlings formed long roots and true leaves and continued their growth. The segregation ratio of non-transgenic to TM of each line was calculated. Resistant/dwarfed seedlings were grown to maturity in soil and the plants were analyzed for AHAS resistance and for ahas^R and Δgai insert by PCR, as described above.
Competition of TM transgenic vs. non-transgenic Brassica napus plants and self competition of each alone: The competitive interactions between the TM transgenic vs. non-transgenic Brassica napus plants were assessed in replicated greenhouse experiments. In the first experiment seeds obtained from the selfed homozygous TM lines T1-J9-4 and -6 were used to grow the TM plants in mixed cultures with the non-transgenic plants in a 1:1 TM/WT ratio. […]

The test system of assay [3] is Δgai-transformed male sterile tobacco plants. In kind it is in vivo, Nicotiana tabacum. Particulars: kinetin foliar spray; normal fertilization and seed development. From the text: Seed production on Δgai male sterile plants: The Δgai effect on pollen production is not irreversible: treatment of plants with cytokinins results in plants producing fertile pollen, and capable of self fertilization. Hemizygous imazapyr resistant and semi-dwarf primary TM tobacco transformants (lines 7, 8, and 10) were transferred to soil and grown to flowering. […] The chemicals were in an aqueous solution containing 0.1% (v/v) Tween 20 surfactant. The control group received the surfactant solution only, or none at all. All applications were made through foliar spray every other day for 2 weeks. Female fertility was assessed by backcrossing wild type pollen donors were backcrossed to one plant from each line without kinetin application (FIG. 4). At maturity, the capsules formed on each plant were counted and the dry weight of seed set of up to 5 capsules per each plant was measured. Normal seed set was observed.
Anthers were collected from three flowers per plant. A minimum of three plants per biotype were analyzed. Pollen viability was scored by staining the pollen with cotton blue stain [Phillips, R. L. in G. Clark, ed. […]
Floral bud and pistil development of the TM transgenic plants were similar to that of wild type plants. […] Pollen viability, scored by staining tests, of these restored lines was >93% compared to approximately 0% of non-treated plants (FIG. 4). […]

Turning to `CP(=O)(O)CCC(N)C(=O)O` (stereo not drawn) [glufosinate], the “Control of red rice” value with red rice is recorded as “easily controlled”.
In the case of `CC(C)C1(C)N=C(c2ncccc2C(=O)O)NC1=O` (stereo not drawn) [imazapyr], the “Discriminatory dose level inhibiting the growth of non-transformed plants” value in assay [1] was 0.3 µM.
Turning to `NC[C@H]1O[C@H](O[C@H]2[C@H](O)[C@@H](O[C@H]3O[C@H](CO)[C@@H](O)[C@H](N)[C@H]3O)[C@H](N)C[C@@H]2N)[C@H](O)[C@@H](O)[C@@H]1O` [kanamycin], the “Discriminatory dose level inhibiting the growth of non-transformed plants” value in assay [1] was 85.8 µM; in assay [2], 150 mg/L. In addition, the “Kanamycin concentration which inhibits the non-transgenics” value in the assay on non-transgenic B. napus stood at 20 mg/L.
Regarding `c1coc(CNc2ncnc3[nH]cnc23)c1` [kinetin], in assay [3], the “Restoration of fertility of male sterile TM transgenic plants” value is “restored the fertility”.

The record behind these values is US7612255B2, “Transgenic plants for mitigating introgression of genetically engineered genetic traits” (priority 1999, dated 2009).
